Source: US11542225B2, “Lipids for use in lipid nanoparticle formulations” (ACUITAS THERAPEUTICS, INC., priority 2017, dated 2023)
Like-named read-outs stand apart in the source and are kept apart here.

How the values were obtained:
[1] = Determination of pKa of formulated lipids (TNS fluorescence assay in lipid nanoparticles); type: physicochemical
From the text: As described elsewhere, the pKa of formulated lipids was correlated with the effectiveness of LNPs for delivery of nucleic acids (see Jayaraman et al, Angewandte Chemie, International Edition (2012), 51(34), 8529-8533; Semple et al, Nature Biotechnology 28, 172-176 (2010)). In some embodiments, the preferred range of pKa was ˜5 to ˜7. […] Lipid nanoparticles comprising compound of structure (I)/DSPC/cholesterol/PEG-lipid (50/10/38.5/1.5 or 47.5:10:40.8:1.7 mol %) in PBS at a concentration of 0.4 mM total lipid were prepared using the in-line process as described in Example 1. TNS was prepared as a 100 μM stock solution in distilled water. Vesicles were diluted to 24 μM lipid in 2 mL of buffered solutions containing 10 mM HEPES, 10 mM MES, 10 mM ammonium acetate, and 130 mM NaCl, where the pH ranged from 2.5 to 11. An aliquot of the TNS solution was added to give a final concentration of 1 μM and following vortex mixing fluorescence intensity was measured at room temperature in a SLM Aminco Series 2 Luminescence Spectrophotometer using excitation and emission wavelengths of 321 nm and 445 nm. A sigmoidal best fit analysis was applied to the fluorescence data and the pKa was measured as the pH giving rise to half-maximal fluorescence intensity.

[2] = tested on: luciferase expression in the liver; experiment: Luciferase mRNA in vivo evaluation using lipid nanoparticle compositions; parameters: species or system mice; details: for Liver Luc @ 0.3 mg/kg (ng luc/g liver) / Liver Luc @ 1.0 mg/kg (ng luc/g liver): novel lipids, tail vein injection, 4 hours after administration; for Liver Luc @ 0.3 mg/kg (ng luc/g liver): 0.3 mg mRNA/kg; for Liver Luc @ 1.0 mg/kg (ng luc/g liver): 1.0 mg mRNA/kg
Method: A lipid of structure (I), DSPC, cholesterol and PEG-lipid were solubilized in ethanol at a molar ratio of 50:10:38.5:1.5 or 47.5:10:40.8:1.7. Lipid nanoparticles (LNP) were prepared at a total lipid to mRNA weight ratio of approximately 10:1 to 30:1. Briefly, the mRNA was diluted to 0.2 mg/mL in 10 to 50 mM citrate buffer, pH 4. Syringe pumps were used to mix the ethanolic lipid solution with the mRNA aqueous solution at a ratio of about 1:5 to 1:3 (vol/vol) with total flow rates above 15 mL/min. The ethanol was then removed and the external buffer replaced with PBS by dialysis. Finally, the lipid nanoparticles were filtered through a 0.2 μm pore sterile filter.
Studies were performed in 6-8 week old female C57BL/6 mice (Charles River) 8-10 week old CD-1 (Harlan) mice (Charles River) according to guidelines established by an institutional animal cwere committee (ACC) and the Canadian Council on Animal Cwere (CCAC). Varying doses of mRNA-lipid nanoparticle were systemically administered by tail vein injection and animals euthanized at a specific time point (e.g., 4 hours) post-administration. Liver and spleen were collected in pre-weighed tubes, weights determined, immediately snap frozen in liquid nitrogen and stored at −80° C. until processing for analysis.
For liver, approximately 50 mg was dissected for analyses in a 2 mL FastPrep tubes (MP Biomedicals, Solon Ohio). ¼″ ceramic sphere (MP Biomedicals) was added to each tube and 500 μL of Glo Lysis Buffer—GLB (Promega, Madison Wis.) equilibrated to room temperature was added to liver tissue. Liver tissues were homogenized with the FastPrep24 instrument (MP Biomedicals) at 2×6.0 m/s for 15 seconds. Homogenate was incubated at room temperature for 5 minutes prior to a 1:4 dilution in GLB and assessed using SteadyGlo Luciferase assay system (Promega). Specifically, 50 μL of diluted twassue homogenate was reacted with 50 μL of SteadyGlo substrate, shaken for 10 seconds followed by 5 minute incubation and then quantitated using a CentroXS^3 LB 960 luminometer (Berthold Technologies, Germany). The amount of protein assayed was determined by using the BCA protein assay kit (Pierce, Rockford, Ill.). Relative luminescence units (RLU) were then normalized to total μg protein assayed. To convert RLU to ng luciferase a standard curve was generated with QuantiLum Recombinant Luciferase (Promega).
The FLuc mRNA (L-6107) from Trilink Biotechnologies will express a luciferase protein, originally isolated from the firefly, Photinus pyralwas. FLuc was commonly used in mammalian cell culture to measure both gene expression and cell viability. It emits bioluminescence in the presence of the substrate, luciferin. This capped and polyadenylated mRNA was fully substituted with 5-methylcytidine and pseudouridine.
Compounds of structure (I) were formulated using the following molar ratio: 47.5% cationic lipid/10% dwastearoylphosphatidylcholine (DSPC)/40.8% Cholesterol/1.7% PEG lipid (“PEG-DMA” 2-[2-(ω-methoxy(polyethyleneglycol2000)ethoxy]-N,N-ditetradecylacetamide). Relative activity was determined by measuring luciferase expression in the liver 4 hours following administration via tail vein injection as described in Example 1. The activity was compared at a dose of 0.3 and 1.0 mg mRNA/kg and expressed as ng luciferase/g liver measured 4 hours after administration, as described in Example 1.
The cationic lipids shown in Table 2 have previously been tested with nucleic acids. For comparative purposes, these lipids were also used to formulate lipid nanoparticles containing the FLuc mRNA (L-6107) using an in line mixing method, as described in Example 1 and in PCT/US10/22614, which is hereby incorporated by reference in its entirety. […]

[3] = tested on: luciferase expression in the liver; experiment: as above; parameters: species or system mice; details: novel lipids; values marked * in the 1.0 mg/kg column: dosed at 0.5 mg/kg; tail vein injection, 4 hours after administration
[4] = Table 3, lipid formulated in LNP, TNS assay

| SMILES | pKa [1] | pKa [1, 4] | Relative activity in the luciferase assay relative to MC3 ([2]; luciferase expression in liver 4 hours after tail vein injection, 47.5/10/40.8/1.7 formulation with PEG-DMA) | Liver Luc @ 0.3 mg/kg (ng luc/g liver) [2] [ng luc/g liver] | Liver Luc @ 1.0 mg/kg (ng luc/g liver) [2] [ng luc/g liver] | Liver Luc (ng luc/g liver), dosed at 0.5 mg/kg [3] |
| --- | --- | --- | --- | --- | --- | --- |
| CCCCCCCCC(CCCCCC)C(=O)OCCCCCCCCCC(CCCCCCCCCOC(=O)C(CCCCCC)CCCCCCCC)OC(=O)CCCCNCCCCN(C)CCCCC(=O)OC(CCCCCCCCCOC(=O)C(CCCCCC)CCCCCCCC)CCCCCCCCCOC(=O)C(CCCCCC)CCCCCCCC (stereo not shown) [Compound 5] | 4.24 | – | – | – | – | – |
| CCCCCCCCC(CCCCCC)COC(=O)CCCCCN(CCCCCC(=O)OCC(CCCCCC)CCCCCCCC)CCCOCCOCCOCCCN(CCCCCC(=O)OCC(CCCCCC)CCCCCCCC)CCCCCC(=O)OCC(CCCCCC)CCCCCCCC (stereo not shown) [Compound 3] | – | 5.3 | – | 33 ± 9 | 99 ± 41 | – |
| CCCCCCCCC(CCCCCC)COC(=O)CCCCCC(CCCCCC(=O)OCC(CCCCCC)CCCCCCCC)NCCCOCCOCCOCCCNC(CCCCCC(=O)OCC(CCCCCC)CCCCCCCC)CCCCCC(=O)OCC(CCCCCC)CCCCCCCC (stereo not shown) [Compound 4] | 7.2 | – | – | – | – | – |
| CCCCCCCCC(CCCCCC)COC(=O)CCCCCCCN(CCCCCCCC(=O)OCC(CCCCCC)CCCCCCCC)CCCCOCC(O)C(O)COCCCCN(CCCCCCCC(=O)OCC(CCCCCC)CCCCCCCC)CCCCCCCC(=O)OCC(CCCCCC)CCCCCCCC (stereo not shown) [Compound 1] | – | 6.18 | – | – | – | 174 ± 43* ng luc/g liver |
| CCCCCCCCC(CCCCCC)COC(=O)CCCCCC(CCCCCC(=O)OCC(CCCCCC)CCCCCCCC)NCCCOCCOCCOCCCN(CCCCCC(=O)OCC(CCCCCC)CCCCCCCC)CCCCCC(=O)OCC(CCCCCC)CCCCCCCC (stereo not shown) [Compound 8] | – | 6.53 | – | – | – | 479 ± 163* ng luc/g liver |

Continued, in another order:

| pKa [1] | pKa [1, 4] | SMILES | Relative activity in the luciferase assay relative to MC3 ([2]; luciferase expression in liver 4 hours after tail vein injection, 47.5/10/40.8/1.7 formulation with PEG-DMA) | Liver Luc @ 0.3 mg/kg (ng luc/g liver) [2] [ng luc/g liver] | Liver Luc @ 1.0 mg/kg (ng luc/g liver) [2] [ng luc/g liver] | Liver Luc (ng luc/g liver), dosed at 0.5 mg/kg [3] |
| --- | --- | --- | --- | --- | --- | --- |
| 6.14 | – | CCCCCCCCC(CCCCCC)COC(=O)CCCCCN(CCCCCC(=O)OCC(CCCCCC)CCCCCCCC)CCCOCC(O)C(O)COCCCN(CCCCCC(=O)OCC(CCCCCC)CCCCCCCC)CCCCCC(=O)OCC(CCCCCC)CCCCCCCC (stereo not shown) [Compound 2] | 4.4 | 1225 ± 159 | 4876 ± 1273 | – |
| – | 5.91 | CCCCCCC(CCCC)COC(=O)CCCCCN(CCCCCC(=O)OCC(CCCC)CCCCCC)CCCN(C)CCCN(CCCCCC(=O)OCC(CCCC)CCCCCC)CCCCCC(=O)OCC(CCCC)CCCCCC (stereo not shown) [Compound 7] | – | 590 ± 98 | 2473 ± 443 | – |
| – | 5.81 | CCCCCCCCC(CCCCCC)COC(=O)CCCCCN(CCCCCC(=O)OCC(CCCCCC)CCCCCCCC)CCCN(C)CCCN(CCCCCC(=O)OCC(CCCCCC)CCCCCCCC)CCCCCC(=O)OCC(CCCCCC)CCCCCCCC (stereo not shown) [Compound 6] | – | 92 ± 13 | 169 ± 46 | – |
